# Measurements from ChEMBL document CHEMBL3045884, “Synthesis, characterization, anticancer, and antioxidant activity of some new thiazolidin-4-ones in MCF-7 cells” (Med Chem Res, 2013).
# Calls of active or inactive are those of the source. The calls are words filed in the database; no cut-off is given here.
# Assays:
# MCF7 [1] = assay: Anticancer activity against Homo sapiens (human) MCF-7 cells assessed as cell survival at 10 ug/ml after 24 hr by MTT assay (reference value: 100%); type: functional; settings: MCF7, 24 h, read-out: Survival
# MCF7 [2] = assay: Anticancer activity against Homo sapiens (human) MCF-7 cells assessed as cell survival at 100 ug/ml after 24 hr by MTT assay (reference value: 100%); type: functional; settings: MCF7, 24 h, read-out: Survival
# MCF7 [3] = assay: Anticancer activity against Homo sapiens (human) MCF-7 cells assessed as cell survival at 1 ug/ml after 24 hr by MTT assay (reference value: 100%); type: functional; settings: MCF7, 24 h, read-out: Survival
# MCF7 [4] = assay: Anticancer activity against Homo sapiens (human) MCF-7 cells assessed as inhibition of cell survival after 24 hr by MTT assay; type: functional, cell-based; settings: MCF7, 24 h
# MCF7 [5] = assay: Anticancer activity against Homo sapiens (human) MCF-7 cells assessed as cell survival at 0.1 ug/ml after 24 hr by MTT assay (reference value: 100%); type: functional; settings: MCF7, 24 h, read-out: Survival
# [6] = system: Radical scavenging activity; assay: Antioxidant activity assessed as DPPH radical scavenging activity after 20 min by ELISA plate reader analysis; type: functional
# [7] = Antioxidant activity assessed as ABTS radical scavenging activity after 20 min by ELISA plate reader analysis; type: functional
# MCF7 [8] = assay: Induction of apoptotic DNA fragmentation in Homo sapiens (human) MCF-7 cells assessed as formation of comets at 50 ug/ml after 24 hr by comet assay; type: functional, cell-based
# MCF7 [9] = assay: Induction of apoptotic DNA fragmentation in Homo sapiens (human) MCF-7 cells assessed as increase in olive tail moment after 24 hr by comet assay; type: functional, cell-based
# MCF7 [10] = assay: Induction of apoptotic DNA fragmentation in Homo sapiens (human) MCF7 cells assessed as increase in tail length after 24 hr by comet assay; type: functional, cell-based
# MCF7 [11] = assay: Induction of apoptotic DNA fragmentation in Homo sapiens (human) MCF-7 cells assessed as increase in tail length at 0.1 uM after 24 hr by comet assay; type: functional, cell-based
# MCF7 [12] = assay: Induction of apoptotic DNA fragmentation in Homo sapiens (human) MCF-7 cells assessed as increase in olive tail moment at 0.1 uM after 24 hr by comet assay; type: functional, cell-based
# MCF7 [13] = assay: Induction of apoptotic DNA fragmentation in Homo sapiens (human) MCF-7 cells assessed as formation of comets at 54 ug/ml after 24 hr by comet assay; type: functional, cell-based
SMILES,viability at 10 µg/mL (MCF7 [1]) [%],viability at 100 µg/mL (MCF7 [2]) [%],viability at 1 µg/mL (MCF7 [3]) [%],IC50 (MCF7 [4]) [µg/mL],viability at 0.1 µg/mL (MCF7 [5]) [%],IC50 [6] [µg/mL],IC50 [7] [µg/mL],Activity (MCF7 [8]),Activity (MCF7 [9]),Activity (MCF7 [10]),Activity (MCF7 [11]),Activity (MCF7 [12]),Activity (MCF7 [13])
O=C1CSC(c2c[nH]nc2-c2ccc(F)cc2)N1n1c(S)nnc1COc1ccc2ccccc2c1 (stereo not given),99.8,96.5,100,> 100,100,,,,,,,,
COc1ccc(-c2n[nH]cc2C2SCC(=O)N2n2c(S)nnc2COc2ccccc2)cc1 (stereo not given),96.8,46.5,100,85,100,,,,,,,,
Cc1ccc(OCc2nnc(S)n2N2C(=O)CSC2c2c[nH]nc2-c2ccc(F)cc2)cc1 (stereo not given),87.5,71.4,74.7,> 100,80.8,,,,,,,,
COc1ccc(-c2n[nH]cc2C2SCC(=O)N2n2c(S)nnc2COc2ccccc2C)cc1 (stereo not given),84.7,25.4,87,29,81.5,46.95,165.78,Active,Dose-dependent effect,Dose-dependent effect,,,
O=C1O[C@H]([C@@H](O)CO)C(O)=C1O [ASCORBIC ACID],,,,,,18.74,31.53,,,,,,
Cc1ccccc1OCc1nnc(S)n1N1C(=O)CSC1c1c[nH]nc1-c1ccc(F)cc1 (stereo not given),92.5,62.1,83.1,> 100,81.4,,,,,,,,
O=C1CSC(c2c[nH]nc2-c2ccc(Cl)cc2)N1n1c(S)nnc1COc1ccc2ccccc2c1 (stereo not given),81.4,50.7,100,100,99.7,,,,,,,,
O=C1CSC(c2c[nH]nc2-c2ccc(F)cc2)N1n1c(S)nnc1COc1ccccc1 (stereo not given),76.5,33.6,69.4,30,65.9,27.16,143.67,Active,Dose-dependent effect,Dose-dependent effect,,,
COc1ccc(-c2n[nH]cc2C2SCC(=O)N2n2c(S)nnc2COc2ccc(C)cc2)cc1 (stereo not given),90.2,43.7,95.4,78,95,,,,,,,,
COc1cccc2c1C(=O)c1c(O)c3c(c(O)c1C2=O)C[C@@](O)(C(=O)CO)C[C@@H]3O[C@H]1C[C@H](N)[C@H](O)[C@H](C)O1,,,,,,,,,,,Active,Active,Active
O=C1CSC(c2c[nH]nc2-c2ccc(Cl)cc2)N1n1c(S)nnc1COc1cccc2ccccc12 (stereo not given),60.3,51.8,70.5,100,101,,,,,,,,
Cc1ccccc1OCc1nnc(S)n1N1C(=O)CSC1c1c[nH]nc1-c1ccc(Cl)cc1 (stereo not given),67.6,13.2,80.7,22,70,31.52,73.03,Active,Dose-dependent effect,Dose-dependent effect,,,
